Drawing on patent US20090215742A1, “AMIDE […]” (PFIZER, INC., priority 2005, published 2009), this text covers inhibition for 37 compounds.

In this assay the target is T1, HSP-90 (Homo sapiens, UniProt P07900).
T1 construct: fused on or other part: 6-His tag at the C-terminus
The assay can be described thus: HSP-90 SPA (scintillation proximity assay) competition binding assay, displacement of tritiated propyl-Geldanamycin. Particulars: for inhibition at 1 µM: read-out: % inhibition @ 1 μM; for inhibition at 10 µM: read-out: % inhibition @ 10 μM.

One may read the inhibition as the relative decrease from the control value, in per cent.

`COc1ccc(CCN(C)C(=O)c2ccc(O)cc2O)cc1OC` [Example 102, N-[2-(3,4-dimethoxyphenyl)ethyl]-2,4-dihydroxy-N-methylbenzamide]: the inhibition at 1 µM was 9.8% and the inhibition at 10 µM was determined as 54.4%.
Take `COc1ccccc1-c1nnc([C@H]2CCCN2C(=O)c2ccc(O)cc2O)o1` [Example 92, 4-({2-[5-(2-methoxyphenyl)-1,3,4-oxadiazol-2-yl]pyrrolidin-1-yl}carbonyl)benzene-1,3-diol]: the inhibition at 1 µM stood at 9% and the inhibition at 10 µM stood at 22.4%.
Taken in the same sequence, the figures for `O=C(c1ccc(O)cc1O)N1CCN(c2cnccn2)CC(CO)C1` (centres unmarked) [Example 124, 4-{[6-(hydroxymethyl)-4-pyrazin-2-yl-1,4-diazepan-1-yl]carbonyl}benzene-1,3-diol] were -4.8% and 18.1%.
Taken in the same sequence, the figures for `COc1ccc(Cc2nnc3n2CCN(C(=O)c2ccc(O)cc2O)CC3)cc1` [Example 116, 4-{[3-(4-methoxybenzyl)-5,6,8,9-tetrahydro-7H-[1,2,4]triazolo[4,3-d][1,4]diazepin-7-yl]carbonyl}benzene-1,3-diol] were 5% and 62.1%.
In the case of `O=C(c1ccc(O)cc1O)N1CCCC1` [Example 90, 4-(pyrrolidin-1-ylcarbonyl)benzene-1,3-diol], the inhibition at 1 µM stood at 23.2% and the inhibition at 10 µM amounted to 65.4%.
Taken in the same sequence, the figures for `Cc1cc(C)c2c(c1)CCC1(CCN(C(=O)c3ccc(O)cc3O)CC1)O2` [Example 75, 4-[(6,8-dimethyl-3,4-dihydro-1′H-spiro[chromene-2,4′-piperidin]-1′-yl)carbonyl]benzene 1,3-diol] were 51.6% and 82%.
Taken in the same sequence, the figures for `COC(=O)C1CCN(C(=O)c2ccc(O)cc2O)C1` (centres unmarked) [Example 94, methyl 1-(2,4-dihydroxybenzoyl)pyrrolidine-3-carboxylate] were 21.1% and 62.1%.
Regarding `O=C(c1ccc(O)cc1O)N1CCCCC1c1nccs1` (centres unmarked) [Example 62, 4-{[2-(1,3-thiazol-2-yl)piperidin-1-yl]carbonyl}benzene 1,3-diol], the inhibition at 1 µM came to 12% and the inhibition at 10 µM was 64.4%.
As to `O=C(c1ccc(O)cc1O)N1CCC(CCc2cncnc2)CC1` [Example 50, 4-{[4-(2-pyrimidin-5-ylethyl)piperidin-1-yl]carbonyl}benzene-1,3-diol], the inhibition at 1 µM is 34.6% and the inhibition at 10 µM stood at 77.7%.
Taken in the same sequence, the figures for `Cc1noc(C)c1COCC1COCCN(C(=O)c2ccc(O)cc2O)C1` (centres unmarked) [Example 98, 4-[(6-{[(3,5-dimethylisoxazol-4-yl)methoxy]methyl}-1,4-oxazepan-4-yl)carbonyl]benzene-1,3-diol] were 26.7% and 65.9%.
`O=C(c1ccc(O)cc1O)N1CCC(Oc2ccc(Cl)cc2)CC1` [Example 68, 4-{[4-(4-chlorophenoxy)piperidin-1-yl]carbonyl}benzene-1,3-diol]: the inhibition at 1 µM was 37.2% and the inhibition at 10 µM amounted to 78.6%.
Regarding `O=C(c1ccc(O)cc1O)N1CCOCC(COCC2CC2)C1` (centres unmarked) [Example 37], the inhibition at 1 µM turned out to be 24.6% and the inhibition at 10 µM is 64.1%.
For the compound `O=C(c1ccc(O)cc1O)N1CCC(COc2ccc(F)cc2Cl)C1` (centres unmarked) [Example 89, 4-({3-[(2-chloro-4-fluorophenoxy)methyl]pyrrolidin-1-yl}carbonyl)benzene-1,3-diol], the inhibition at 1 µM was determined as 45.7% and the inhibition at 10 µM came to 77.8%.
Regarding `O=C(c1ccc(O)cc1O)N1CCN(c2nc(-c3ccccc3C(F)(F)F)cc(=O)[nH]2)CC1` [Example 126, 2-[4-(2,4-dihydroxybenzoyl)piperazin-1-yl]-6-[2-(trifluoromethyl)phenyl]pyrimidin-4(3H)-one], the inhibition at 1 µM came to 35.9% and the inhibition at 10 µM was found to be 71%.
Taken in the same sequence, the figures for `Cc1nc2c(s1)CN(C(=O)c1ccc(O)cc1O)CC2` [Example 104, 4-[(2-methyl-6,7-dihydro[1,3]thiazolo[5,4-c]pyridin-5(4H)-yl)carbonyl]benzene-1,3-diol] were 33.9% and 74.3%.
On to `O=C(c1ccc(O)cc1O)N1CCCC1c1ccc(Cl)cc1` (centres unmarked) [Example 84, 4-{[2-(4-chlorophenyl)pyrrolidin-1-yl]carbonyl}benzene-1,3-diol], for which the inhibition at 1 µM was 76.2% and the inhibition at 10 µM stood at 89.8%.
Taken in the same sequence, the figures for `O=C(c1ccc(O)cc1O)N1CCCC(COc2cccc(Cl)c2)C1` (centres unmarked) [Example 59, 4-({3-[(3-chlorophenoxy)methyl]piperidin-1-yl}carbonyl)benzene-1,3-diol] were 58.6% and 82.9%.
Taken in the same sequence, the figures for `O=C(c1ccc(O)cc1O)N1CCOCC2(CC(c3ccccc3)=NO2)C1` (centres unmarked) [Example 130] were 46.2% and 82.4%.
Taken in the same sequence, the figures for `Cc1ccc(C(=O)N2Cc3ccccc3C2)c(O)c1` [Example 27, 2-(1,3-dihydro-2H-isoindol-2-ylcarbonyl)-5-methylphenol] were 0.2% and 26.2%.
Regarding `O=C(c1ccc(O)cc1O)N1CCC(c2ccc(F)cc2)CC1` [Example 70, 4-{[4-(4-fluorophenyl)piperidin-1-yl]carbonyl}benzene-1,3-diol], the inhibition at 1 µM was 40.2% and the inhibition at 10 µM was determined as 79.1%.
Taken in the same sequence, the figures for `O=C(c1ccc(O)cc1O)N1CCC(Oc2ccccc2)CC1` [Example 71, 4-[(4-phenoxypiperidin-1-yl)carbonyl]benzene-1,3-diol] were 37.3% and 79.3%.
Taken in the same sequence, the figures for `O=C(c1ccc(O)cc1O)N1CCOCC(COCc2c(Cl)cccc2Cl)C1` (centres unmarked) [Example 122, 4-[(6-{[(2,6-dichlorobenzyl)oxy]methyl}-1,4-oxazepan-4-yl)carbonyl]benzene-1,3-diol] were 48.2% and 79%.
Taken in the same sequence, the figures for `O=C(c1ccc(O)cc1O)N1CCOC(COc2ccc(F)cc2Cl)C1` (centres unmarked) [Example 115, 4-({2-[(2-chloro-4-fluorophenoxy)methyl]morpholin-4-yl}carbonyl)benzene-1,3-diol] were 60.3% and 83.7%.
For the compound `O=C(c1ccc(O)cc1O)N1CCSC1` [Example 117, 4-(1,3-thiazolidin-3-ylcarbonyl)benzene-1,3-diol], the inhibition at 1 µM is 65% and the inhibition at 10 µM is 89.2%.
Taken in the same sequence, the figures for `O=C(c1ccc(O)cc1O)N1CCC(CCc2ccccc2)CC1` [Example 49, 4-{[4-(2-phenylethyl)piperidin-1-yl]carbonyl}benzene-1,3-diol] were 61.2% and 86.3%.
Take `O=C1CC2(CCN(C(=O)c3ccc(O)cc3O)CC2)Oc2ccccc21` [Example 85]: the inhibition at 1 µM was found to be 52.1% and the inhibition at 10 µM is 79.6%.
Turning to `O=C(c1cc(-c2ccc(F)cc2F)ccc1O)N1Cc2ccccc2C1` [Example 28, 3-(1,3-dihydro-2H-isoindol-2-ylcarbonyl)-2′,4′-difluorobiphenyl-4-ol], the inhibition at 1 µM turned out to be 50.8% and the inhibition at 10 µM came to 76.2%.
Taken in the same sequence, the figures for `COc1ccc(F)c(C2=NOC3(COCCN(C(=O)c4ccc(O)cc4O)C3)C2)c1` (centres unmarked) [Example 132, 4-{[3-(2-fluoro-5-methoxyphenyl)-1,7-dioxa-2,10-diazaspiro[4.6]undec-2-en-10-yl]carbonyl}benzene-1,3-diol] were 33.3% and 73.9%.
Taken in the same sequence, the figures for `O=C(c1ccc(O)cc1O)N1CCC2(CC1)CC(OCc1ccccc1F)CO2` (centres unmarked) [Example 51, 4-({3-[(2-fluorobenzyl)oxy]-1-oxa-8-azaspiro[4.5]dec-8-yl}carbonyl)benzene-1,3-diol] were 22.1% and 70.9%.
Taken in the same sequence, the figures for `COc1cc(C2=NOC3(COCCN(C(=O)c4ccc(O)cc4O)C3)C2)ccc1F` (centres unmarked) [Example 129, 4-{[3-(4-fluoro-3-methoxyphenyl)-1,7-dioxa-2,10-diazaspiro[4.6]undec-2-en-10-yl]carbonyl}benzene-1,3-diol] were 60.5% and 88.5%.
Take `COc1ccccc1OC1CCN(C(=O)c2ccc(O)cc2O)CC1` [Example 72, 4-{[4-(2-methoxyphenoxy)piperidin-1-yl]carbonyl}benzene-1,3-diol]: the inhibition at 1 µM turned out to be 13.2% and the inhibition at 10 µM was 62.4%.
For the compound `COc1ccccc1-c1nnc(CN(C)C(=O)c2ccc(O)cc2O)o1` [Example 118, 2,4-Dihydroxy-N-{[5-(2-methoxyphenyl)-1,3,4-oxadiazol-2-yl]methyl}-N-methylbenzamide], the inhibition at 1 µM worked out at 15.4% and the inhibition at 10 µM was determined as 57%.
As for `O=C(c1ccc(O)cc1O)N1CCOC[C@@H]1c1ccccc1` [Example 135, 4-[(3-phenylmorpholin-4-yl)carbonyl]benzene-1,3-diol], the inhibition at 1 µM came out at 15.9% and the inhibition at 10 µM turned out to be 44.7%.
Taken in the same sequence, the figures for `CC(C)(C)CC1CCCCN1C(=O)c1ccc(O)cc1O` (centres unmarked) [Example 41, 4-{[2-(2,2-dimethylpropyl)piperidin-1-yl]carbonyl}benzene-1,3-diol] were 64.8% and 86.8%.
Taken in the same sequence, the figures for `Cc1ccccc1C1(O)CCN(C(=O)c2ccc(O)cc2O)C1` (centres unmarked) [Example 100, 4-{[3-hydroxy-3-(2-methylphenyl)pyrrolidin-1-yl]carbonyl}benzene-1,3-diol] were 35.9% and 79.1%.
As to `O=C(c1ccc(O)cc1O)N1CCC2(CC1)OCc1ccccc12` [Example 80, 4-(1′H,3H-spiro[2-benzofuran-1,4′-piperidin]-1′-ylcarbonyl)benzene-1,3-diol], the inhibition at 1 µM was 42% and the inhibition at 10 µM was determined as 81.3%.
On to `O=C(c1ccc(O)cc1O)N1CCCCC1CCC1CCCC1` (centres unmarked) [Example 44, 4-{[2-(2-cyclopentylethyl)piperidin-1-yl]carbonyl}benzene-1,3-diol], for which the inhibition at 1 µM turned out to be 82.4% and the inhibition at 10 µM turned out to be 90.5%.
